This is an account of results in DBAASP.

Molecules are shown by their SMILES. In brackets after ≈: the same amount, converted by molar mass. A value given as a limit tells only on which side of the number the result lay.

Some test systems named below: Acinetobacter baumannii; Staphylococcus aureus; Escherichia coli K-12; Enterobacter cloacae; Escherichia coli BL21; Aspergillus fumigatus; Bibersteinia trehalosi; Klebsiella pneumoniae; Pasteurella multocida.
Experiment in all cases: ≥ marks a high value that may be exact or a test limit, other limits are often not marked, values filed in µg/mL are converted to µM
Assay [1] concerns Escherichia coli ATCC 25922.
Assay [2] concerns Pseudomonas aeruginosa ATCC 10662.
Assay [3] relates to Staphylococcus aureus ATCC 25923.
For assay [4], the system named is Staphylococcus epidermidis ATCC 1435.
For assay [5], the system named is Acinetobacter baumannii ATCC 19606.
In assay [6] the test system is Candida albicans ATCC 90028.
Assay [7] concerns Cryptococcus neoformans var. grubii H99.
Assay [8] deals with Klebsiella pneumoniae ATCC 700603.
The test system of assay [9] is Pseudomonas aeruginosa ATCC 27853.
The test system of assay [10] is Staphylococcus aureus ATCC 43300.
The test system of assay [11] is Staphylococcus aureus JE2.
The test system of assay [12] is Escherichia coli DH5alpha.
For assay [13], the system named is Escherichia coli NBRC 3972.
Assay [14] concerns Proteus vulgaris NBRC 3045.
Assay [15] has as its system Pseudomonas aeruginosa NBRC 13275.
Assay [16] deals with Staphylococcus epidermidis.
The subject of assay [17] is Enterococcus faecalis ATCC 19433.
The test system of assay [18] is Escherichia coli KpC+001812446.
For assay [19], the system named is Klebsiella pneumoniae ATCC 13883.
For assay [20], the system named is Klebsiella pneumoniae KpC+001825971.
The test system of assay [21] is Pseudomonas aeruginosa H1001.
Assay [22] deals with Pseudomonas aeruginosa PA14.
Assay [23] deals with Pseudomonas aeruginosa PAO1.
In assay [24] the test system is Staphylococcus aureus ATCC 12600.
The test system of assay [25] is Corynebacterium pseudotuberculosis ATCC 19410.
The test system of assay [26] is Mannheimia haemolytica Serovar 1.
In assay [27] the test system is Mannheimia haemolytica Serovar 2.
The subject of assay [28] is Mannheimia haemolytica Serovar 6.
For assay [29], the system named is Salmonella enterica subsp. arizonae.

On to `CC[C@H](C)[C@H](NC(=O)CNC(=O)[C@H](CCCN=C(N)N)NC(=O)[C@H](Cc1ccccc1)NC(=O)[C@@H](NC(=O)[C@H](Cc1cnc[nH]1)NC(=O)[C@H](Cc1cnc[nH]1)NC(=O)[C@H](Cc1ccccc1)NC(=O)[C@@H](N)Cc1ccccc1)[C@@H](C)CC)C(=O)N[C@H](C(=O)N[C@@H](Cc1cnc[nH]1)C(=O)N[C@H](C(=O)NCC(=O)N[C@@H](CCCCN)C(=O)N[C@H](C(=O)N[C@@H](CCCCN)C(=O)N[C@@H](Cc1cnc[nH]1)C(=O)N[C@@H](CCCN=C(N)N)C(=O)N[C@@H](CC(C)C)C(=O)N[C@H](C(=O)N[C@H](C(=O)NCC(N)=O)[C@@H](C)O)C(C)C)[C@@H](C)O)C(C)C)C(C)C` [FFHHIFRGIVHVGKTKHRLVTG], for which the minimum inhibitory concentration (MIC) turned out to be 1.2 µM (≈ 3.1 µg/mL) against Acinetobacter baumannii; 1.2 µM (≈ 3.1 µg/mL) in assay [1]; 9.66 µM (≈ 25 µg/mL) in assay [2]; 2.4 µM (≈ 6.2 µg/mL) in assay [3]; 2.4 µM (≈ 6.2 µg/mL) against Staphylococcus aureus; 1.2 µM (≈ 3.1 µg/mL) in [4].

As for `CC[C@H](C)[C@H](NC(=O)[C@@H](NC(=O)[C@H](CO)NC(=O)[C@H](C)NC(=O)[C@@H](NC(=O)[C@H](CCCCN)NC(=O)[C@H](CCCN=C(N)N)NC(=O)[C@@H](NC(=O)[C@@H](NC(=O)[C@H](CC(=O)O)NC(=O)[C@H](Cc1ccccc1)NC(=O)[C@H](CC(C)C)NC(=O)CN)C(C)C)[C@@H](C)CC)C(C)C)C(C)C)C(=O)NCC(=O)NCC(=O)N[C@@H](CC(C)C)C(=O)O` [GLFDVIRKVASVIGGL], the MIC is 19.5 µM (≈ 32 µg/mL) in assay [5]; 19.5 µM (≈ 32 µg/mL) in assay [6]; 9.73 µM (≈ 16 µg/mL) in assay [7]; greater than 19.5 µM in assay [1]; 19.5 µM (≈ 32 µg/mL) in the assay on Escherichia coli K-12; greater than 19.5 µM in assay [8]. For the same compound, the results for the MIC in assay [9], in assay [10] and in assay [11] were greater than 19.5 µM, 9.73 µM (≈ 16 µg/mL) and 9.73 µM (≈ 16 µg/mL), respectively.

As for `CC(C)C[C@H](NC(=O)[C@H](CCCCN)NC(=O)CNC(=O)[C@H](CCCCN)NC(=O)[C@H](CC(C)C)NC(=O)[C@H](CCCCN)NC(=O)[C@H](CC(C)C)NC(=O)[C@H](CCCCN)NC(=O)[C@H](C)NC(=O)CNC(=O)[C@H](CC(C)C)NC(=O)[C@H](CCCCN)NC(=O)[C@H](CC(C)C)NC(=O)[C@H](CCCCN)NC(=O)[C@H](C)NC(=O)[C@H](CC(C)C)NC(=O)[C@H](CCCCN)NC(=O)[C@H](CCCCN)NC(=O)[C@@H](N)CCCCN)C(=O)NCC(=O)N[C@@H](C)C(N)=O` [KKKLAKLKLGAKLKLKGKLGA], the MIC in assay [12] was 25 µM (≈ 55.8 µg/mL); in [13], 12.5 µM (≈ 27.9 µg/mL); in assay [14], no less than 100 µM; in assay [15], 3.12 µM (≈ 6.98 µg/mL); against Staphylococcus aureus, 100 µM (≈ 223 µg/mL); in assay [16], 6.25 µM (≈ 14 µg/mL).

For `CC[C@H](C)[C@H](NC(=O)[C@H](CCCCN)NC(=O)[C@H](CC(C)C)NC(=O)[C@H](CCCN=C(N)N)NC(=O)[C@H](CC(C)C)NC(=O)[C@H](CCCCN)NC(=O)[C@@H](N)CCCCN)C(=O)N[C@@H](C)C(=O)N[C@@H](Cc1ccccc1)C(=O)N[C@@H](CCCCN)C(=O)O` [KKLRLKIAFK], the MIC was no less than 32 µM in the assay on Acinetobacter baumannii; no less than 32 µM against Enterobacter cloacae; 5.66 µM (≈ 7.04 µg/mL) in assay [17]; 16 µM (≈ 19.9 µg/mL) in [1]; 4 µM (≈ 4.98 µg/mL) in the assay on Escherichia coli BL21; 22.6 µM (≈ 28.2 µg/mL) in [18]. Further, the MIC is no less than 32 µM in assay [19]; no less than 32 µM in [20]; greater than 32 µM in assay [9]; 20 µM (≈ 24.9 µg/mL) in assay [21]; no less than 32 µM in assay [22]; 32 µM (≈ 39.8 µg/mL) in assay [23]. Further, the MIC in assay [24] was no less than 32 µM; in assay [3], greater than 32 µM; with Staphylococcus aureus, greater than 32 µM.

Turning to `CC[C@H](C)[C@H](NC(=O)[C@H](Cc1cnc[nH]1)NC(=O)[C@@H](NC(=O)[C@@H](NC(=O)[C@H](CCCCN)NC(=O)[C@H](CCCN=C(N)N)NC(=O)[C@@H](NC(=O)[C@@H](NC(=O)[C@H](CCCN=C(N)N)NC(=O)[C@H](CCCN=C(N)N)NC(=O)[C@@H](N)CC(C)C)[C@@H](C)CC)[C@@H](C)CC)[C@@H](C)CC)[C@@H](C)CC)C(=O)N[C@H](C(=O)N[C@@H](CCCCN)C(=O)N[C@@H](CCCCN)C(=O)O)[C@@H](C)CC` [LRRIIRKIIHIIKK], the MIC is 18.5 µM (≈ 33.3 µg/mL) in the assay on Aspergillus fumigatus; 11.1 µM (≈ 20 µg/mL) against Bibersteinia trehalosi; 11.1 µM (≈ 20 µg/mL) in [25]; greater than 11.1 µM against Klebsiella pneumoniae; 2.78 µM (≈ 5 µg/mL) in [26]; 3.72 µM (≈ 6.7 µg/mL) in [27]. In addition, the MIC in [28] was 9.28 µM (≈ 16.7 µg/mL); against Pasteurella multocida, 5.55 µM (≈ 10 µg/mL); in assay [23] it was 1.83 µM (≈ 3.3 µg/mL); in assay [29], 11.1 µM (≈ 20 µg/mL); against Staphylococcus aureus it was greater than 11.1 µM.

A word on the MIC: it is the least concentration at which growth counts as inhibited.
